# Experimental data: US20210251953A1, “COMPOSITIONS FOR TREATING AND/OR […]-A[…]” (U[…] DE OLAVIDE, priority 2018, published 2021)
# Where two headings read alike, the source gives them in different places.
# How the values were obtained:
# [1] = system: GMC101 strain of C. elegans; experiment: Temperature-dependent paralysis assay in C. elegans Alzheimer's disease model; format: in vivo; conditions: for number of paralyzed worms: 1 μg/ml, counted after 18-hour incubation at 25° C.
# Experimental: Paralysis assay: Worms were grown at a non-restrictive temperature of 16° C. until they reached the L4-young adult stage. The temperature was then shifted to 25° C. The number of paralyzed and non-paralyzed animals were counted after an 18-hour incubation at the restrictive temperature of 25° C.
# Statistical analysis: The data were analyzed using a 2-tailed chi-square test in contingency table. Statistical analysis was performed using the GraphPad Prism software (version 7.00).
# [2] = system: β-amyloid; experiment: β-amyloid immunohistochemistry and histological analysis in APP-PS1 mice; format: in vivo
# Experimental: (§1) Mice strains and conditions: The male Swiss (CD1) and APP-PS1 (Blanchard et al., 2003. Exp Neural. 184(1):247-63) mice used in this study were purchased from an authorized provider (University of Seville, Spain) and they were habituated to standard animals housing conditions for 2-3 weeks (a 12 h light/dark cycle, temperature and humidity). Behavioral studies were performed with 8 week-old Swiss mice, and >15 month-old APP-PS1 mice in C57Black background. For histological studies, male APP-PS1 mice from 2 to >15 months of age were used. All experiments were performed in accordance with European Union guidelines (2010/63/EU) and with Spanish regulations for the use of laboratory animals in chronic experiments (RD 53/2013 on the care of experimental animals: BOE Aug. 2, 2013), and the approval of the University Pablo de Olavide animal care committees was obtained prior to performing this study.
# (§2) Mice Oral STX administration: STX64 was dissolved in drinking water at 0.005 mg/ml. Mice were exposed to STX solution during 3-4 weeks and the water intake was registered every day during the treatment. The estimated daily dose of STX64 was between 1-2 mg/Kg of body weight.
# Immunohistochemistry and histological analysis: For immunohistochemistry, an antibody against β-amyloid (1:3000, Sigma-Aldrich) was used. Antibody staining was visualized with H2O2 and diaminobenzidine, and enhanced with nickel. To minimize variability, at least 5 sections per mice were analyzed under a bright-field DMRB RFY HC microscope (Leica). In each section, the percentage area occupied by β-amyloid, the density and the average size of β-amyloid accumulations were quantified using Image-J software (downloaded as a free software package from the public domain: http://rsb.info.nih.gov/ij/download.html).
# [3] = system: α-synuclein aggregates; experiment: Counting of fluorescent α-synuclein aggregates in C. elegans Parkinson's disease model; format: in vivo; conditions: NL5901 nematodes expressing α-synuclein fused to YFP; STX64 vs DMSO
# Experimental: Further, we tested the effect of the sul-2 deletion and the administration of STX64 on the aggregation of α-synuclein. To quantify the aggregates, animals were transferred to pads comprising 2% agarose and immobilized using 25 mM levamisole. The number of α-synuclein aggregates was determined by counting fluorescent aggregates at 40× magnification, from first bulb pharyngeal to second bulb.
# [4] = system: wild type mice injected with β-amyloid oligomers in the hippocampus; experiment: Step-through passive avoidance test after intrahippocampal β-amyloid oligomers (acute AD mouse model); format: in vivo
# Experimental: as §1
# Mice local drug infusion: Mice were anesthetized with 4% chloral hydrate ([…] of body weight, i.p.) and when fully anesthetized, they were situated in a stereotactic frame. In order to injure the hippocampus, 0.5 μl of 5 μM solution of β-amyloid oligomers were injected bilaterally into the dorsal hippocampus of the mice at the following stereotactic coordinates: AP=−2.2 mm, ML=±1.5 mm, V=−1.5 mm from the Bregma. The mice were then allowed to recover for at least 15 days. […]
# [5] = system: 35 polyglutamine (polyQ) repeats fused to YFP, strain AM140; experiment: Counting of polyQ aggregates in C. elegans Huntington's disease model; format: in vivo; conditions: STX64 1 μg/ml in DMSO; counted at day 5 of adulthood
# Experimental: To quantify the aggregates, animals were transferred to pads comprising 2% agarose and immobilized using 25 mM levamisole. The number of polyQ aggregates was determined by counting fluorescent aggregates at 10× magnification, from first bulb pharyngeal to second bulb.
# [6] = system: APP-PS1 mice; experiment: Step-through passive avoidance test in APP-PS1 mice (chronic AD mouse model); format: in vivo; conditions: APP-PS1 mice older than 15 months, oral STX64 during 3-4 weeks; vs vehicle and wild type mice
# Experimental: as §1, §2
# Step-through passive avoidance (PA) test: Mice have an innate preference for dark and enclosed environments. […]
# [7] = system: wild type worms and sul-2 deletion mutants; conditions: cited from earlier work
# [8] = system: R6/1 mice; experiment: Open-field motor activity test in mouse model of Huntington's disease; format: in vivo; conditions: oral STX64 0.005 mg/ml in drinking water from 1 month of age for 1 month, tested at 2 months
# Experimental: Mice strains and conditions: The R6/1 mice (Yi Li et al., 2005. NeuroRX. 2(3): 447-464; Mangiarini et al., 1996. Cell. 87(3):493-506) used in this study were purchased from an authorized provider and they were habituated to standard animals housing conditions for 2-3 weeks (a 12 h light/dark cycle, temperature and humidity). Motor activity studies were performed with 2-month-old R6/1 mice. All experiments were performed in accordance with European Union guidelines (2010/63/EU) and with Spanish regulations for the use of laboratory animals in chronic experiments (RD 53/2013 on the care of experimental animals: BOE Aug. 2, 2013), and the approval of the University Pablo de Olavide animal care committees was obtained prior to performing this study.
# Mice Oral STX administration: STX64 was dissolved in drinking water at 0.005 mg/ml. 1-month-old mice were exposed to STX solution for 1 month and the water intake was registered every day during the treatment. The estimated daily dose of STX64 was between 1-2 mg/Kg of body weight.
# Motor activity test: Locomotor activity was tested in a non-stressful open-field (56×40×40 cm) for 15 minutes. The distance traveled by the mice was estimated with Smart video-tracking software (Panlab).
# [9] = system: C. elegans Alzheimer's disease model strain CL2006; experiment: Paralysis in C. elegans Alzheimer's disease model expressing β-amyloid in muscle cells; format: in vivo; conditions: nematodes expressing β-amyloid in muscle cells, monitored from 1st day of adulthood
# Experimental: C. elegans model of Alzheimer's disease: We also tested an Alzheimer's disease model expressing β-amyloid protein in muscle cells which causes paralysis in the nematode as it ages. Nematodes were synchronized at 20° C. Paralysis was monitored from 1st day of adulthood, by observing whether there is a lack of movement after the nematode was stimulated with a platinum pick.
# [10] = system: C. elegans Parkinson's disease model strain NL5901; experiment: Mobility (pitches per minute) in C. elegans Parkinson's disease model; format: in vivo; conditions: STX64 1 μg/ml in DMSO; nematodes overexpressing human α-synuclein in muscle cells, monitored every two days; vs DMSO
# Experimental: C. elegans models of Parkinson's disease: We tested if sul-2 mutations or STX64 (Sigma cat. No. 51950) treatment at 1 μg/ml concentration dissolved in DMSO improved the symptoms caused by the overexpression of human α-synuclein in muscle cells (see the following references for information on the model used: van Ham et al., 2008. PLoS Genet. 4(3):e1000027; Gidalevitz et al., 2009. PLoS Genet. 5(3):e1000399; van Ham et al., 2010. Cell. 142(4):601-12). In particular, nematodes were synchronized at 20° C. and monitored every two days. On each day of monitoring, a nematode was placed in a drop of M9 buffer, allowing 30 seconds accommodation and later counting number of pitches in one minute, assuming that a pitch occurs when the head of the nematode crosses the axial axis. N=20 for each day assayed and condition (this protocol was adapted from Van Ham et al., 2010. Cell. 142: 601-612).
structure (smiles),measurement,setting,value
"C[C@]12CC[C@@H]3c4ccc(OS(N)(=O)=O)cc4CC[C@H]3[C@@H]1CCC2=O [EMATE, estrone sulfamate]",number of paralyzed worms,[1],reduced the number of paralyzed worms
NS(=O)(=O)Oc1ccc2c3c(c(=O)oc2c1)CCCCC3 [STX64],number of paralyzed worms,[1],reduced the number of paralyzed worms
same,"effect on paralysis, comparison of sul-2 absence, STX64 and EMATE",[1]; GMC101 strain,appeared to have the greatest effect
same,β-amyloid immunoreactive area,"[2]; >15-month-old APP-PS1 mice, 3-4 weeks oral STX64 (0.005 mg/ml in drink water), frontal cortex and hippocampus, vs vehicle",significant reduction
same,β-amyloid plaque density,"[2]; >15-month-old APP-PS1 mice, 3-4 weeks oral STX64, frontal cortex and hippocampus, vs vehicle",significant reduction
same,average β-amyloid plaque size,"[2]; >15-month-old APP-PS1 mice, 3-4 weeks oral STX64, frontal cortex, vs vehicle",significant reduction
same,average β-amyloid plaque size,"[2]; >15-month-old APP-PS1 mice, 3-4 weeks oral STX64, hippocampus, vs vehicle","a significant reduction, except for plaque size in hippocampus"
same,β-amyloid deposition compared with the time-course in untreated APP-PS1 mice,"[2]; >15 month-old APP-PS1 mice, 3-4 weeks oral STX64, frontal cortex and hippocampus",reduced β-amyloid deposition in APP-PS1 mice older than 15 months to that observed in APP-PS1 mice of 10-12 months of age
same,number of bigger α-synuclein aggregates (≥3 μm),[3],increasing the number of bigger aggregates
same,number of smaller α-synuclein aggregates (<1 μm),[3],decreased the number of smaller aggregates
same,"cognitive deficiencies (escape latency, passive avoidance test)","[4]; local (intrahippocampal) STX64, 0.5 μl of 1 mg/ml, 20 minutes before β-amyloid oligomers",reverted cognitive deficiencies
same,"cognitive deficiencies (escape latency, passive avoidance test)","[4]; systemic (oral) STX64, 0.005 mg/ml in drinking water",reverted cognitive deficiencies
same,total number of polyQ aggregates,[5],reduced the total number of aggregates
same,cognitive deficiencies (passive avoidance test),[6],completely reverted cognitive deficiencies
same,longevity,[7]; sul-2 deletion mutants,did not further increase the longevity
same,longevity,[7]; wild type worms,the same longevity effects as in the sul-2 mutants
same,"motor activity (distance traveled in open-field, 15 minutes)",[8],decrease in motor activity can be avoided
same,paralysis with age,[9],delayed paralysis
same,mobility (number of pitches in one minute),[10],significantly improved mobility
